In patent publication US11274082B2, “Tead inhibitors and uses thereof” (Ikena Oncology, Inc., priority 2019, dated 2022):
Read-outs that look alike come from different tables or passages of the source.

Columns and labels:
[1] = system: TEAD; test: TEAD reporter assay (Hippo Pathway TEAD Reporter - MCF7 cell line, luciferase); assay type: cell-based; settings: Homo sapiens
Source text: TEAD inhibition can be assayed using Hippo Pathway TEAD Reporter—MCF7 Cell Line (BPS Bioscience, Catalog #: 60618).
The TEAD Reporter—MCF7 cell line contains the firefly luciferase gene under the control of TEAD responsive elements stably integrated into the human breast cancer cell line, MCF7. Inside the cells, basal unphosphorylated YAP/TAZ remains in the nucleus and induces the constitutive expression of luciferase reporter. The cell line is validated for the inhibition of the expression of luciferase reporter by the activators of the Hippo pathway.
• 1) Harvest TEAD Reporter—MCF7 cells from culture in growth medium and seed cells at a density of 35,000 cells per well into white clear-bottom 96-well microplate in 45 μl of assay medium. • 2) Incubate cells at 37° C. in a CO2 incubator for overnight. • 3) Dilute the activators (H2O2 or okadaic acid) stock in assay medium. Add 5 μl of diluted activators to the wells. The final concentration of DMSO in assay medium is 0.1%. • 4) Add 5 μl of assay medium with same concentration of DMSO without activator to control wells. • 5) Add 50 μl of assay medium with DMSO to cell-free control wells (for determining background luminescence). • 6) Set up each treatment in at least triplicate. • 7) Incubate cells at 37° C. in a CO2 incubator for 5-6 hours. • 8) Perform luciferase assay using the ONE-Step™ Luciferase Assay System following the protocol provided: Add 100 μl of ONE-Step™ Luciferase reagent per well and rock at room temperature for ˜15 minutes. Measure luminescence using a luminometer. • 9) Data Analysis: Obtain the background-subtracted luminescence by subtracting the average background luminescence (cell-free control wells) from the luminescence reading of all wells.
(§1) Certain compounds were tested in TEAD reporter assay, and in H226 and H28. A: EC50<0.1 uM; B: 0.1 uM≤EC50≤0.5 uM; C: EC50>0.5 uM.

[2] = system: H226; test: Anti-proliferation assay in H226 cells; assay type: cell-based; settings: Homo sapiens
Procedure: as §1
Individual cell lines were grown in medium according to supplier instructions and seeded into 96-well plates at a density that ensured logarithmic growth over 72 hours. TEAD inhibitor compounds were administered to cells at a top concentration of 10 μm and subsequently a 10 point 3-fold serial dilution was conducted. After 72 hours, proliferation was quantified using Cell TITERGLO™ (Promega, Inc.) and compared to vehicle control. IC50 and EC50 values were generated using XLFit curve fitting software.

[3] = TEAD Reporter - MCF7 cells, read-out: TEAD Reporter Assay EC50
[4] = NCI-H226, H226 cells, read-out: H226 EC50
[5] = MCF7, read-out: TEAD Reporter Assay EC50 (uM)
[6] = NCI-H226, read-out: H226 EC50 (uM)

| SMILES | EC50 [1, 3] [µM] | EC50 [2, 4] [µM] | EC50 [1, 5] [µM] | EC50 [2, 6] [µM] |
| --- | --- | --- | --- | --- |
| CNS(=O)(=O)c1ccc(N[C@H]2CCc3ccccc32)c(-c2cn(C)cn2)c1 (single isomer, unassigned) [I-58] | > 0.5 | > 0.5 |  |  |
| CNS(=O)(=O)c1ccc(N[C@@H]2CCc3ccccc32)c(-c2cn(C)cn2)c1 (single isomer, unassigned) [I-59] | < 0.1 | < 0.1 |  |  |
| CNS(=O)(=O)c1ccc(NC(CO)c2ccccc2)c(-c2cn(C)cn2)c1 (stereo in doubt) [I-39, 4-[[(1S)-2-Hydroxy-1-phenyl-ethyl]amino]-N-methyl-3-(1-methylimidazol-4-yl)benzenesulfonamide] | > 0.5 | > 0.5 |  |  |
| CNS(=O)(=O)c1ccc(Oc2cccc(C(F)(F)F)c2)c(B(O)O)c1 [I-18, [5-(methylsulfamoyl)-2-[3-(trifluoromethyl)phenoxy]phenyl]boronic acid] |  | > 0.5 |  |  |
| CNS(=O)(=O)c1ccc(Oc2cccc(C(F)(F)F)c2)c(-c2cnc(C)[nH]2)c1 [I-19, N-Methyl-3-(2-methyl-1H-imidazol-5-yl)-4-[3-(trifluoromethyl)phenoxy]benzenesulfonamide] |  | > 0.5 |  |  |
| CNS(=O)(=O)c1ccc(Oc2cccc(C(F)(F)F)c2)c(-c2cc(C)n[nH]2)c1 [I-20, N-methyl-3-(3-methyl-1H-pyrazol-5-yl)-4-[3-(trifluoromethyl)phenoxy]benzenesulfonamide] |  | > 0.5 |  |  |
| CNS(=O)(=O)c1ccc(Nc2cccc(C(F)(F)F)c2)c(C(=O)N(C)OC)c1 [I-21, N-methoxy-N-methyl-5-(methylsulfamoyl)-2-[3-(trifluoromethyl)anilino]benzamide] |  | > 0.5 |  |  |
| CNS(=O)(=O)c1ccc(Oc2cccc(C(F)(F)F)c2)c(-c2cn(C)cn2)c1 [I-22, Y-Methyl-3-(1-methyl-1H-imidazol-4-yl)-4-(3-(trifluoromethyl)phenoxy)benzenesulfonamide] | > 0.5 | > 0.5 |  |  |
| CNS(=O)(=O)c1ccc(Nc2cccc(C(F)(F)F)c2)c(C(C)=O)c1 [I-23, 3-acetyl-N-methyl-4-[3-(trifluoromethyl)anilino]benzenesulfonamide] | > 0.5 | > 0.5 |  |  |
| CNS(=O)(=O)c1ccc(Oc2cccc(C(F)(F)F)c2)c(C(N)=O)c1 [I-24] | > 0.5 | > 0.5 |  |  |
| CNS(=O)(=O)c1ccc(Oc2cccc(C(F)(F)F)c2)c(-c2nc(C)c[nH]2)c1 [I-25, N-Methyl-3-(4-methyl-1H-imidazol-2-yl)-4-[3-(trifluoromethyl)phenoxy]benzenesulfonamide] | > 0.5 |  |  |  |
| COC(=O)c1ccc(NCc2ccccc2)c(-c2nnn(C)n2)c1 [I-26, Methyl 4-(benzylamino)-3-(2-methyltetrazol-5-yl)benzoate] | > 0.5 | > 0.5 |  |  |
| CNS(=O)(=O)c1ccc(N[C@@H](C)c2ccccc2)c(-c2cn(C)cn2)c1 [I-28, N-Methyl-3-(1-methylimidazol-4-yl)-4-[[(1S)-1-phenylethyl]amino]benzenesulfonamide] | > 0.5 | > 0.5 |  |  |
| CNS(=O)(=O)c1ccc(NC(=O)c2ccccc2)c(-c2cn(C)cn2)c1 [I-29, N-[2-(1-Methylimidazol-4-yl)-4-(methylsulfamoyl)phenyl]benzamide] |  |  | > 0.5 | > 0.5 |
| CNS(=O)(=O)c1cnc(N[C@@H](C)c2ccccc2)c(-c2cn(C)cn2)c1 [I-34, N-Methyl-5-(1-methylimidazol-4-yl)-6-[[(1S)-1-phenylethyl]amino]pyridine-3-sulfonamide] | > 0.5 | > 0.5 |  |  |
| CNS(=O)(=O)c1cnc(N[C@H](C)c2ccccc2)c(-c2cn(C)cn2)c1 [I-35, N-Methyl-5-(1-methylimidazol-4-yl)-6-[[(1R)-1-phenylethyl]amino]pyridine-3-sulfonamide] | 0.1 to 0.5 | 0.1 to 0.5 |  |  |
| CNS(=O)(=O)c1ccc(N[C@H](CO)c2ccccc2)c(-c2cn(C)cn2)c1 [I-40, 4-[[(1S)-2-Hydroxy-1-phenyl-ethyl]amino]-N-methyl-3-(1-methylimidazol-4-yl)benzenesulfonamide] | > 0.5 | > 0.5 |  |  |

| SMILES | EC50 [1, 3] [µM] | EC50 [2, 4] [µM] | EC50 [1, 5] [µM] | EC50 [2, 6] [µM] |
| --- | --- | --- | --- | --- |
| CCNS(=O)(=O)c1ccc(NCc2ccccc2)c(-c2cn(C)cn2)c1 [I-41, 4-(Benzylamino)-N-ethyl-3-(1-methylimidazol-4-yl)benzenesulfonamide] | 0.1 to 0.5 | < 0.1 |  |  |
| Cn1cnc(-c2cc(S(N)(=O)=O)ccc2NCc2ccccc2)c1 [I-42, 4-(Benzylamino)-3-(1-methylimidazol-4-yl)benzenesulfonamide] | > 0.5 | 0.1 to 0.5 |  |  |
| Cn1cnc(-c2cc(S(C)(=O)=O)ccc2NCc2ccccc2)c1 [I-44, N-Benzyl-2-(1-methylimidazol-4-yl)-4-methylsulfonyl-aniline] | > 0.5 | 0.1 to 0.5 |  |  |
| CC[C@@H](Nc1ccc(S(=O)(=O)NC)cc1-c1cn(C)cn1)c1ccccc1 [I-45, N-Methyl-3-(1-methylimidazol-4-yl)-4-[[(1R)-1-phenylpropyl]amino]benzenesulfonamide] |  |  | 0.1 to 0.5 | 0.1 to 0.5 |
| CC(C)NS(=O)(=O)c1ccc(NCc2ccccc2)c(-c2cn(C)cn2)c1 [I-46, 4-(Benzylamino)-N-isopropyl-3-(1-methylimidazol-4-yl) benzenesulfonamide] |  |  | > 0.5 | 0.1 to 0.5 |
| CNS(=O)(=O)c1ccc(N[C@@H]2CCCc3ccccc32)c(-c2cn(C)cn2)c1 [I-47, N-Methyl-3-(1-methylimidazol-4-yl)-4-[[(1R)-tetralin-1-yl]amino]benzenesulfonamide] | 0.1 to 0.5 | 0.1 to 0.5 |  |  |
| Cn1cnc(-c2cc(S(C)(=O)=O)ccc2Nc2cc(C(F)(F)F)ccn2)c1 [I-48, N-[2-(1-Methylimidazol-4-yl)-4-methylsulfonyl-phenyl]-4-(trifluoromethyl)pyridin-2-amine] | > 0.5 | 0.1 to 0.5 |  |  |
| Cn1cnc(-c2cc(S(N)(=O)=O)ccc2Nc2cc(C(F)(F)F)ccn2)c1 [I-49, 3-(1-Methylimidazol-4-yl)-4-[[4-(trifluoromethyl)-2-pyridyl]amino]benzenesulfonamide] | > 0.5 | 0.1 to 0.5 |  |  |
| CNS(=O)(=O)c1ccc(NCc2ccccc2)c(-c2cn(C(C)C)cn2)c1 [I-50, 4-(Benzylamino)-3-(1-isopropylimidazol-4-yl)-N-methyl-benzenesulfonamide] | 0.1 to 0.5 | 0.1 to 0.5 |  |  |
| CNS(=O)(=O)c1ccc(NCc2ccccc2)c(-c2cn(C3CC3)cn2)c1 [I-51, 4-(Benzylamino)-3-(1-cyclopropylimidazol-4-yl)-N-methyl-benzenesulfonamide] | < 0.1 | < 0.1 |  |  |
| CNS(=O)(=O)c1ccc(N[C@H]2CCCc3ccccc32)c(-c2cn(C)cn2)c1 [I-52, N-Methyl-3-(1-methylimidazol-4-yl)-4-[[(1S)-tetralin-1-yl]amino]benzenesulfonamide] | > 0.5 | > 0.5 |  |  |
| CC[C@H](Nc1ccc(S(=O)(=O)NC)cc1-c1cn(C)cn1)c1ccccc1 [I-53, N-Methyl-3-(1-methylimidazol-4-yl)-4-[[(1S)-1-phenylpropyl]amino]benzenesulfonamide] | > 0.5 | > 0.5 |  |  |
| CNS(=O)(=O)c1ccc(Nc2cc(C(F)(F)F)ccn2)c(-c2cn(C3CC3)cn2)c1 [I-54, 3-(1-Cyclopropylimidazol-4-yl)-N-methyl-4-[[4-(trifluoromethyl)-2-pyridyl]amino]benzenesulfonamide] | < 0.1 | < 0.1 |  |  |
| CNS(=O)(=O)c1ccc(Nc2cc(C(F)(F)F)ccn2)c(-c2cn(C(C)C)cn2)c1 [I-55, 3-(1-Isopropylimidazol-4-yl)-N-methyl-4-[[4-(trifluoromethyl)-2-pyridyl]amino]benzenesulfonamide] | 0.1 to 0.5 | < 0.1 |  |  |
| CNS(=O)(=O)c1ccc(N[C@H](C)c2ccc(C(F)(F)F)cc2)c(-c2cn(C)cn2)c1 [I-56, N-Methyl-3-(1-methylimidazol-4-yl)-4-[[(1R)-1-[4-(trifluoromethyl)phenyl]ethyl]amino]benzenesulfonamide] | 0.1 to 0.5 | 0.1 to 0.5 |  |  |
| CNS(=O)(=O)c1ccc(N[C@@H](C)c2ccc(C(F)(F)F)cc2)c(-c2cn(C)cn2)c1 [I-57, N-Methyl-3-(1-methylimidazol-4-yl)-4-[[(1S)-1-[4-(trifluoromethyl)phenyl]ethyl]amino]benzenesulfonamide] | > 0.5 | > 0.5 |  |  |
| CNS(=O)(=O)c1ccc(Nc2ccc(C(F)(F)F)cn2)c(-c2cn(C3CC3)cn2)c1 [I-87, 3-(1-Cyclopropylimidazol-4-yl)-N-methyl-4-[[5-(trifluoromethyl)-2-pyridyl]amino]benzenesulfonamide] |  | < 0.1 |  |  |
